Measured values reported in PubChem BioAssay (NCI).
Values joined by “and” are separate entries in the source; they are usually repeats but may differ in a detail not shown here. Identical values can stand only once.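 Interpolation was linear, between the two tested concentrations surrounding the appropriate level; five concentrations were tested over 48 hours in 96-well plates. Here, GI50 denotes the concentration required for 50% inhibition of growth. TGI: concentration producing complete growth inhibition.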

How the values were obtained:
Assay in all cases: NCI-60 cell line screen, 48 h
NCI-H23 lung = tested on: NCI-H23 lung
NCI-H460 lung = tested on: NCI-H460 lung
NCI-H522 lung = tested on: NCI-H522 lung
NCI/ADR-RES ovarian = tested on: NCI/ADR-RES ovarian
OVCAR-3 ovarian = tested on: OVCAR-3 ovarian
OVCAR-4 ovarian = tested on: OVCAR-4 ovarian
OVCAR-5 ovarian = tested on: OVCAR-5 ovarian
OVCAR-8 ovarian = tested on: OVCAR-8 ovarian
PC-3 prostate = tested on: PC-3 prostate
RPMI-8226 leukemia = tested on: RPMI-8226 leukemia
RXF 393 renal = tested on: RXF 393 renal
SF-268 CNS = tested on: SF-268 CNS
SF-295 CNS = tested on: SF-295 CNS
SF-539 CNS = tested on: SF-539 CNS
SK-MEL-2 melanoma = tested on: SK-MEL-2 melanoma
SK-MEL-28 melanoma = tested on: SK-MEL-28 melanoma
SK-MEL-5 melanoma = tested on: SK-MEL-5 melanoma
SK-OV-3 ovarian = tested on: SK-OV-3 ovarian
SN12C renal = tested on: SN12C renal
SNB-19 CNS = tested on: SNB-19 CNS
SNB-75 CNS = tested on: SNB-75 CNS
SR leukemia = tested on: SR leukemia
SW-620 colon = tested on: SW-620 colon
T-47D breast = tested on: T-47D breast
TK-10 renal = tested on: TK-10 renal
U251 CNS = tested on: U251 CNS
UACC-257 melanoma = tested on: UACC-257 melanoma
UACC-62 melanoma = tested on: UACC-62 melanoma
UO-31 renal = tested on: UO-31 renal

With `CN1CCN(CCOc2cc(OC3CCOCC3)c3c(Nc4c(Cl)ccc5c4OCO5)ncnc3c2)CC1` the GI50 (NCI-H23 lung) was 12.2 µM and > 10 µM, the TGI (NCI-H23 lung) was 57.1 µM and > 10 µM and the GI50 (NCI-H460 lung) was 18.6 µM and > 10 µM. The TGI (NCI-H460 lung) was 65.6 µM and > 10 µM, the GI50 (NCI-H522 lung) was 165 nM and 346 nM and the TGI (NCI-H522 lung) was 2500 nM and > 10000 nM. The GI50 (NCI/ADR-RES ovarian) was 10.6 µM and 8.91 µM, the TGI (NCI/ADR-RES ovarian) was 56.8 µM and > 10 µM and the GI50 (OVCAR-3 ovarian) was 3.7 µM and 5.55 µM. For the same compound, the TGI (OVCAR-3 ovarian) was 22.2 µM and > 10 µM, the GI50 (OVCAR-4 ovarian) was 13.5 µM and > 10 µM and the TGI (OVCAR-4 ovarian) was 34.7 µM and > 10 µM. For the same compound, the GI50 (OVCAR-5 ovarian) was 1130 nM and 1350 nM, the TGI (OVCAR-5 ovarian) was 23.9 µM and > 10 µM and the GI50 (OVCAR-8 ovarian) was 8.55 µM and 8.64 µM. The TGI (OVCAR-8 ovarian) was 34 µM and > 10 µM, the GI50 (PC-3 prostate) was 19.3 µM and > 10 µM and the TGI (PC-3 prostate) was > 100 µM. The GI50 (RPMI-8226 leukemia) was 19.4 µM and > 10 µM, the TGI (RPMI-8226 leukemia) was 63.4 µM and > 10 µM and the GI50 (RXF 393 renal) was 788 nM and 1020 nM. For the same compound, the TGI (RXF 393 renal) was 12.6 µM and > 10 µM, the GI50 (SF-268 CNS) was 4.72 µM and > 10 µM and the TGI (SF-268 CNS) was 33.8 µM and > 10 µM. The GI50 (SF-295 CNS) was 5.83 µM and > 10 µM, the TGI (SF-295 CNS) was 25.3 µM and > 10 µM and the GI50 (SF-539 CNS) was 6.5 µM and 6.41 µM. For the same compound, the TGI (SF-539 CNS) was 21.1 µM and > 10 µM, the GI50 (SK-MEL-2 melanoma) was 16.6 µM and > 10 µM and the TGI (SK-MEL-2 melanoma) was 31.8 µM and > 10 µM. For the same compound, the GI50 (SK-MEL-28 melanoma) was 13.6 µM and > 10 µM, the TGI (SK-MEL-28 melanoma) was 27.2 µM and > 10 µM and the GI50 (SK-MEL-5 melanoma) was 11.4 µM and > 10 µM. The TGI (SK-MEL-5 melanoma) was 23.6 µM and > 10 µM, the GI50 (SK-OV-3 ovarian) was 441 nM and 345 nM and the TGI (SK-OV-3 ovarian) was 13.2 µM and > 10 µM. The GI50 (SN12C renal) was 736 nM and 3310 nM, the TGI (SN12C renal) was 27.2 µM and > 10 µM and the GI50 (SNB-19 CNS) was 12.1 µM and > 10 µM. For the same compound, the TGI (SNB-19 CNS) was > 100 µM, the GI50 (SNB-75 CNS) was 206 nM and 209 nM and the TGI (SNB-75 CNS) was 3.47 µM and > 10 µM. The GI50 (SR leukemia) was 9.63 µM and 5.98 µM, the TGI (SR leukemia) was 37.4 µM and > 10 µM and the GI50 (SW-620 colon) was 17.5 µM and > 10 µM. For the same compound, the TGI (SW-620 colon) was 33.6 µM and > 10 µM, the GI50 (T-47D breast) was 1230 nM and 286 nM and the TGI (T-47D breast) was 22.3 µM and > 10 µM. For the same compound, the GI50 (TK-10 renal) was 671 nM and 517 nM, the TGI (TK-10 renal) was 6.4 µM and > 10 µM and the GI50 (U251 CNS) was 11.2 µM and > 10 µM. The TGI (U251 CNS) was 31.1 µM and > 10 µM, the GI50 (UACC-257 melanoma) was 15.1 µM and > 10 µM and the TGI (UACC-257 melanoma) was 30.2 µM and > 10 µM. The GI50 (UACC-62 melanoma) was 14.8 µM, the TGI (UACC-62 melanoma) was 28.6 µM and the GI50 (UO-31 renal) was 420 nM and 373 nM. The TGI (UO-31 renal) was 14.5 µM and > 10 µM.
